Results as given in ChEMBL document CHEMBL5303764, “Data for DCP probe BI-3812” (2023).
Calls of active or inactive are those of the source. No cut-off for these calls is given here.

Assays:
[1] = target: D(2) dopamine receptor (Homo sapiens) (UniProt P14416); experiment: D2SH_AGON Eurofins SafetyScreen44 (BI); details: filed as agonist, Compound concentration 10.0 uM
[2] = target: Ribosomal protein S6 kinase alpha-3 (Homo sapiens) (UniProt P51812); experiment: RPS6KA3 Invitrogen Lab (UK) kinase screen (BI); details: Compound concentration 1.0 uM
[3] = target: Dual specificity mitogen-activated protein kinase kinase 6 (Homo sapiens) (UniProt P52564); experiment: MAP2K6 Invitrogen Lab (UK) kinase screen (BI); details: Compound concentration 1.0 uM
[4] = target: Alpha-1D adrenergic receptor (Homo sapiens) (UniProt P25100); details: Compound concentration 10.0 uM
[5] = target: Muscarinic acetylcholine receptor M2 (Homo sapiens) (UniProt P08172); details: Compound concentration 10.0 uM
[6] = target: Mitogen-activated protein kinase 1 (Homo sapiens) (UniProt P28482); experiment: MAPK1 Invitrogen Lab (UK) kinase screen (BI); details: Compound concentration 1.0 uM
[7] = target: Aurora kinase B (Homo sapiens) (UniProt Q96GD4); experiment: AURKB Invitrogen Lab (UK) kinase screen (BI); details: Compound concentration 1.0 uM
[8] = target: Sodium-dependent dopamine transporter (Homo sapiens) (UniProt Q01959); details: Compound concentration 10.0 uM
[9] = target: Muscarinic acetylcholine receptor M1 (Homo sapiens) (UniProt P11229); details: Compound concentration 10.0 uM
[10] = target: L-type Ca2+ channel (dihydropyridine site), Cav1.2 alpha-1C (Rattus norvegicus, UniProt P22002); experiment: CA+/DHPSI/R Eurofins SafetyScreen44 (BI); details: rat brain, probe [3H](+)PN200-110, compound concentration 10 uM, read-out: % Ctrl
[11] = target: Alpha-2C adrenergic receptor (Homo sapiens) (UniProt P18825); details: Compound concentration 10.0 uM
[12] = target: T1, Muscarinic acetylcholine receptor M3 (Homo sapiens, UniProt P20309); experiment: M3/H Eurofins SafetyScreen44 (BI); details: Compound concentration 10.0 uM
[13] = target: Inhibitor of nuclear factor kappa-B kinase subunit beta (Homo sapiens) (UniProt O14920); experiment: IKBKB Invitrogen Lab (UK) kinase screen (BI); details: Compound concentration 1.0 uM
[14] = target: 5-hydroxytryptamine receptor 5A (Homo sapiens) (UniProt P47898); details: Compound concentration 10.0 uM
[15] = target: Serine/threonine-protein kinase PLK1 (Homo sapiens) (UniProt P53350); experiment: PLK1 Invitrogen Lab (UK) kinase screen (BI); details: Compound concentration 1.0 uM
[16] = target: 5-hydroxytryptamine receptor 7 (Homo sapiens) (UniProt P34969); details: Compound concentration 10.0 uM
[17] = target: Serine/threonine-protein kinase PAK 4 (Homo sapiens) (UniProt O96013); experiment: PAK4 Invitrogen Lab (UK) kinase screen (BI); details: Compound concentration 1.0 uM
[18] = target: Vasopressin V1a receptor (Homo sapiens) (UniProt P37288); experiment: V1A/HUM Eurofins SafetyScreen44 (BI); details: Compound concentration 10.0 uM
[19] = target: Ephrin type-A receptor 2 (Homo sapiens) (UniProt P29317); experiment: EPHA2 Invitrogen Lab (UK) kinase screen (BI); details: Compound concentration 1.0 uM
[20] = target: Alpha-2B adrenergic receptor (Homo sapiens) (UniProt P18089); details: Compound concentration 10.0 uM
[21] = target: Cannabinoid receptor 1 (Homo sapiens) (UniProt P21554); experiment: CB1(HU)_AGON Eurofins SafetyScreen44 (BI); details: filed as agonist, Compound concentration 10.0 uM
[22] = target: Zinc finger and BTB domain-containing protein 17 (Homo sapiens, UniProt Q13105); experiment: SPR (ZBTB17), Ontario institute for cancer research
[23] = target: Mitogen-activated protein kinase 8 (Homo sapiens) (UniProt P45983); experiment: MAPK8 Invitrogen Lab (UK) kinase screen (BI); details: Compound concentration 1.0 uM
[24] = target: Mitogen-activated protein kinase 9 (Homo sapiens) (UniProt P45984); experiment: MAPK9 Invitrogen Lab (UK) kinase screen (BI); details: Compound concentration 1.0 uM
[25] = target: Sodium-dependent serotonin transporter (Homo sapiens) (UniProt P31645); experiment: SLC6A4/H Eurofins SafetyScreen44 (BI); details: filed as antagonist, Compound concentration 10.0 uM
[26] = target: 5-hydroxytryptamine receptor 1B (Homo sapiens) (UniProt P28222); details: Compound concentration 10.0 uM
[27] = target: Adenosine receptor A2a (Homo sapiens) (UniProt P29274); experiment: A2A/H Eurofins SafetyScreen44 (BI); details: filed as antagonist, Compound concentration 10.0 uM
[28] = target: B-cell lymphoma 6 protein (Homo sapiens, UniProt P41182); experiment: BCL6:BCOR ULight TR-FRET
[29] = organism: Rattus norvegicus; details: Compound concentration 10.0 uM
[30] = target: 5-hydroxytryptamine receptor 1D (Homo sapiens) (UniProt P28221); details: Compound concentration 10.0 uM
[31] = target: Mitogen-activated protein kinase 3 (Homo sapiens) (UniProt P27361); experiment: MAPK3 Invitrogen Lab (UK) kinase screen (BI); details: Compound concentration 1.0 uM
[32] = target: 5-hydroxytryptamine receptor 3A (Homo sapiens) (UniProt P46098); details: Compound concentration 10.0 uM
[33] = target: 5-hydroxytryptamine receptor 2A (Homo sapiens) (UniProt P28223); experiment: 5HT2AH_AGON Eurofins SafetyScreen44 (BI); details: filed as agonist, Compound concentration 10.0 uM
[34] = target: Dual specificity mitogen-activated protein kinase kinase 2 (Homo sapiens) (UniProt P36507); experiment: MAP2K2 Invitrogen Lab (UK) kinase screen (BI); details: Compound concentration 1.0 uM
[35] = target: Glutamate NMDA receptor (Rattus norvegicus) (UniProt P35439+Q00959+Q00960+Q00961+Q62645+Q8VHN2+Q9R1M7); experiment: NMDA/R Eurofins SafetyScreen44 (BI); assay type: protein-complex assay; details: Compound concentration 10.0 uM
[36] = target: Interleukin-1 receptor-associated kinase 4 (Homo sapiens) (UniProt Q9NWZ3); experiment: IRAK4 Invitrogen Lab (UK) kinase screen (BI); details: Compound concentration 1.0 uM
[37] = target: T1, Muscarinic acetylcholine receptor M3; details: Compound concentration 10.0 uM
[38] = target: Glucocorticoid receptor (Homo sapiens) (UniProt P04150); experiment: GCORTICOID/H Eurofins SafetyScreen44 (BI); details: Compound concentration 10.0 uM
[39] = target: Glycogen synthase kinase-3 beta (Homo sapiens) (UniProt P49841); experiment: GSK3B Invitrogen Lab (UK) kinase screen (BI); details: Compound concentration 1.0 uM
[40] = target: 5-hydroxytryptamine receptor 2C (Homo sapiens) (UniProt P28335); details: Compound concentration 10.0 uM
[41] = target: D(1A) dopamine receptor (Homo sapiens) (UniProt P21728); experiment: D1/H Eurofins SafetyScreen44 (BI); details: filed as antagonist, Compound concentration 10.0 uM
[42] = target: Delta-type opioid receptor (Homo sapiens) (UniProt P41143); experiment: DELTA2/H Eurofins SafetyScreen44 (BI); details: Compound concentration 10.0 uM
[43] = target: Histamine H3 receptor (Homo sapiens) (UniProt Q9Y5N1); details: Compound concentration 10.0 uM

T1 sequence (P20309 whole entry, looked up): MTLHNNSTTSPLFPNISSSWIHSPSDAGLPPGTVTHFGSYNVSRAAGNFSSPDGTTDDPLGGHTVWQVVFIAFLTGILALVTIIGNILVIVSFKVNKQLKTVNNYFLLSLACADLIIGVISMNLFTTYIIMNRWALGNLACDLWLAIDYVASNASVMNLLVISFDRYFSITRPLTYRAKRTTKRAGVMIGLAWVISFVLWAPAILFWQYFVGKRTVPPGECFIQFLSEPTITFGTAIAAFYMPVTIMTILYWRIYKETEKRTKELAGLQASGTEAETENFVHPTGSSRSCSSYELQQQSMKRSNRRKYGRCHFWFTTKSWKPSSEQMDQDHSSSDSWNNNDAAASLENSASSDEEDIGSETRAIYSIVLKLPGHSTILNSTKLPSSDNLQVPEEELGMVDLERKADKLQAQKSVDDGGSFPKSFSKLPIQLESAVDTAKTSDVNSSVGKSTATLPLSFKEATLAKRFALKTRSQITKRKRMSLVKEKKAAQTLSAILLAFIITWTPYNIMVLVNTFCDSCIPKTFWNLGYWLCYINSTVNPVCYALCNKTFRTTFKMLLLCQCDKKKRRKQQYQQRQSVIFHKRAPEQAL
Alpha-2C adrenergic receptor (Homo sapiens), sequence (P18825 whole entry): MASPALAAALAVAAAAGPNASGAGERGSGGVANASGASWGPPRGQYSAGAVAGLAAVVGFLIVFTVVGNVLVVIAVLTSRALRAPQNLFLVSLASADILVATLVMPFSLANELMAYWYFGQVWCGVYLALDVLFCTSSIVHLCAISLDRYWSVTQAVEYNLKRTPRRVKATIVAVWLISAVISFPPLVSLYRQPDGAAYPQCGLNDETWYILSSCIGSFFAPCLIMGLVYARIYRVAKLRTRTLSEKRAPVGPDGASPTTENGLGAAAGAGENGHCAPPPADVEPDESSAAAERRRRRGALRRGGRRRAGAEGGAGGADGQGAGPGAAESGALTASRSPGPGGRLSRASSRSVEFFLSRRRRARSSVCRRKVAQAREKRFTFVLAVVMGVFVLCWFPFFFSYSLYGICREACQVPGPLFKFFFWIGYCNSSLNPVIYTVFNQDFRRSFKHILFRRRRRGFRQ
5-hydroxytryptamine receptor 5A (Homo sapiens), sequence (P47898 whole entry): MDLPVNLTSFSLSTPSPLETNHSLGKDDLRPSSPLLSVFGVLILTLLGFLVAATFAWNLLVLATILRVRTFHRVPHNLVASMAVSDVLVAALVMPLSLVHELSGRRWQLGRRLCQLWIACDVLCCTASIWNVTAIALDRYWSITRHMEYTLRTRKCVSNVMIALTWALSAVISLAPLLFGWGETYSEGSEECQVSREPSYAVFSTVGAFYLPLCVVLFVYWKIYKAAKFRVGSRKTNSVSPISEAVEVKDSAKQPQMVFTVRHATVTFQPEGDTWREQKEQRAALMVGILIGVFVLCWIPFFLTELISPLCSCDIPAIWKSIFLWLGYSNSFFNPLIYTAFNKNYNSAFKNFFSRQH
Muscarinic acetylcholine receptor M2 (Homo sapiens), sequence (P08172 whole entry): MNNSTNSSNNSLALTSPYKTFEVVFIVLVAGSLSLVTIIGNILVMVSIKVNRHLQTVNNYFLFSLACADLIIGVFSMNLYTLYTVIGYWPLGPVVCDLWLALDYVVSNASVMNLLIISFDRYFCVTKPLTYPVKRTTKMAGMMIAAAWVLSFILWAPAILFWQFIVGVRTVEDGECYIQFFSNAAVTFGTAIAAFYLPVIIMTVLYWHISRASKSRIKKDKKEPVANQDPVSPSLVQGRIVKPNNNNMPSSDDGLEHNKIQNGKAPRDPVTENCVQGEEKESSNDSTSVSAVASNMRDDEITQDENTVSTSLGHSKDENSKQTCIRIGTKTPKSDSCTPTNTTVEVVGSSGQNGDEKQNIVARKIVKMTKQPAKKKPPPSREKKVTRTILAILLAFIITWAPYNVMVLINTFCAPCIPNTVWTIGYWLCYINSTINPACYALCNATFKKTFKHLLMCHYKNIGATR
Alpha-1D adrenergic receptor (Homo sapiens), sequence (P25100 whole entry): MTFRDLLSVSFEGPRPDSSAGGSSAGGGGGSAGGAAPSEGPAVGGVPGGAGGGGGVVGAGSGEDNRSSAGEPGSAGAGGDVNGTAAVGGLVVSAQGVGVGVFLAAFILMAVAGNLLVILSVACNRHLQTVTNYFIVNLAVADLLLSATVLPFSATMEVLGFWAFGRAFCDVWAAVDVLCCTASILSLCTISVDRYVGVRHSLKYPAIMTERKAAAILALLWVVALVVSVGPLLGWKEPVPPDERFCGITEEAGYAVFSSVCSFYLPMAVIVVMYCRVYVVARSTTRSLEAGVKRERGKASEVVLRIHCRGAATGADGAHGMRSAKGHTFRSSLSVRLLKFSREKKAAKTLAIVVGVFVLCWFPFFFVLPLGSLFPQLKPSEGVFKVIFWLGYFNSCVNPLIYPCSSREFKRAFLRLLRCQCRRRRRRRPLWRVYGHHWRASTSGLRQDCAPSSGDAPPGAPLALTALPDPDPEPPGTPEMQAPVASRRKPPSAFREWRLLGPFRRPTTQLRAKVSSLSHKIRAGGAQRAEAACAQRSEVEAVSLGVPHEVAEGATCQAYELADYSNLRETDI
Sodium-dependent dopamine transporter (Homo sapiens), sequence (Q01959 whole entry): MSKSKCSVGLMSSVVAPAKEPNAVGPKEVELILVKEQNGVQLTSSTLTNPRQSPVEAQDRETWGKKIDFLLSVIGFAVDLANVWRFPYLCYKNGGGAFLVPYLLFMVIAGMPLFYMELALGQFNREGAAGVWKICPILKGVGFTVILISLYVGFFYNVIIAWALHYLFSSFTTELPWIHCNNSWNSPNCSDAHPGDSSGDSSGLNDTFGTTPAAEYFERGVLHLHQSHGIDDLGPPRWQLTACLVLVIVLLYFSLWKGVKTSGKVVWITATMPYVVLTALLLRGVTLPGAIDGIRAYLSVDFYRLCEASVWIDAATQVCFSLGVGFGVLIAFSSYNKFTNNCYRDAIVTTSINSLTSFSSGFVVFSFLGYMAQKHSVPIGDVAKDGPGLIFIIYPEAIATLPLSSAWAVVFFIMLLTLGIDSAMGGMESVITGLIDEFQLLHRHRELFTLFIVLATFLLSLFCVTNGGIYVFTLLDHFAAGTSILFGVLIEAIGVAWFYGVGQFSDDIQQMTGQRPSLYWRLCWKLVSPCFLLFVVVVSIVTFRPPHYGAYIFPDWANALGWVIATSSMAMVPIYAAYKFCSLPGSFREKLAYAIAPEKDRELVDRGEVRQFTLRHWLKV
5-hydroxytryptamine receptor 3A (Homo sapiens), sequence (P46098 whole entry): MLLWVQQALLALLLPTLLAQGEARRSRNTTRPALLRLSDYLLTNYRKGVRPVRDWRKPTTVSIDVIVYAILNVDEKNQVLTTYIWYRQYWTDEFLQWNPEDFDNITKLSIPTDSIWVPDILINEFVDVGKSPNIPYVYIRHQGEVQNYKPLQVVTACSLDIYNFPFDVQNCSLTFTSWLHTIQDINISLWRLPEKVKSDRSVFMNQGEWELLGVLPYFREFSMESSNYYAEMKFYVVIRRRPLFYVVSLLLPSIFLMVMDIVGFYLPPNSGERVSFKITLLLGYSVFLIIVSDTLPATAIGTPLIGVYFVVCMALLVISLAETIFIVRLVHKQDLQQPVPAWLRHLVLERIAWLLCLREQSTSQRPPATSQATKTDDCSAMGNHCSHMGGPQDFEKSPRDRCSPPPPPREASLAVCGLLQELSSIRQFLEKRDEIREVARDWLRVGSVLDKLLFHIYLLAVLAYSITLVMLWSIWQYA
5-hydroxytryptamine receptor 1D (Homo sapiens), sequence (P28221 whole entry): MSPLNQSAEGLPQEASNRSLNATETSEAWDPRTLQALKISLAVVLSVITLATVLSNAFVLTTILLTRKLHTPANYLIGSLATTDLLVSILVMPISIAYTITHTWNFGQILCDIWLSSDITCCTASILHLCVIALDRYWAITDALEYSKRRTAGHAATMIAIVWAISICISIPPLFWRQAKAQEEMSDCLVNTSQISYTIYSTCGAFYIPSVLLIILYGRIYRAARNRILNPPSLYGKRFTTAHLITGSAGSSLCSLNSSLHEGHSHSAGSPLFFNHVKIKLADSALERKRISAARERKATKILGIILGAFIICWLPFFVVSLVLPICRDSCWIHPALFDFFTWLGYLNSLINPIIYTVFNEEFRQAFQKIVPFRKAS
5-hydroxytryptamine receptor 1B (Homo sapiens), sequence (P28222 whole entry): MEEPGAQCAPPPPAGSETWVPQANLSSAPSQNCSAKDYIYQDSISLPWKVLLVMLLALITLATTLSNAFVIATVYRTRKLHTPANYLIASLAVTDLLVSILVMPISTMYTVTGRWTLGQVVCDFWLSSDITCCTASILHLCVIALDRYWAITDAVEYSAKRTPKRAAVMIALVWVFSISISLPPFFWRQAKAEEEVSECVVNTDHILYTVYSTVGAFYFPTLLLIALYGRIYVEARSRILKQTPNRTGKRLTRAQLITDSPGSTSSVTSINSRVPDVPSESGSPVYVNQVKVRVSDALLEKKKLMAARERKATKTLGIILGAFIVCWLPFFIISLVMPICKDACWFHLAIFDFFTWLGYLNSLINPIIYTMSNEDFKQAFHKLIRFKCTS
5-hydroxytryptamine receptor 7 (Homo sapiens), sequence (P34969 whole entry): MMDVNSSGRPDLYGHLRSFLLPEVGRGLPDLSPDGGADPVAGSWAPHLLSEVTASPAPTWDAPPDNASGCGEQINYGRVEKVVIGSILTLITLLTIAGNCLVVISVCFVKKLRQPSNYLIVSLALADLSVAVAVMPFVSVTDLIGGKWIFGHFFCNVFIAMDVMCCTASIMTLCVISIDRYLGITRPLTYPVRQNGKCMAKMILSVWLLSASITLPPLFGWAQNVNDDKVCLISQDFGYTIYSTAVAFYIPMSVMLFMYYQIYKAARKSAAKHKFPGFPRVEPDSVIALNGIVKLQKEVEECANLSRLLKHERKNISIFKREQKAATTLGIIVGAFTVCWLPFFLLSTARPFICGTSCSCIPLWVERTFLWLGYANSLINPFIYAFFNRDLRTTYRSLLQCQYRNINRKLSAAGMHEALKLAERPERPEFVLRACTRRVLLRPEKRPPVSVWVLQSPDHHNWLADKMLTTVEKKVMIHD

**Q.** Which residual activity [1] does the source give for `CNC(=O)COc1cc2cc(Nc3nc(N4CCC(C(=O)N(C)C)CC4)ncc3Cl)cc(OC)c2n(C)c1=O` here?
**A.** Its residual activity is 101%.

**Q.** And the residual activity [2]?
**A.** The residual activity was 93%.

**Q.** And the residual activity [3]?
**A.** The residual activity was 112%.

**Q.** And the inhibition [4]?
**A.** The inhibition was 2.72%.

**Q.** What about the inhibition [5] of the same compound?
**A.** The inhibition was 19.5%.

**Q.** What about the residual activity [6] of the same compound?
**A.** Its residual activity is 98%.

**Q.** And the residual activity [7]?
**A.** Its residual activity is 89%.

**Q.** What about the inhibition [8] of the same compound?
**A.** The inhibition was 12.2%.

**Q.** What about the inhibition [9] of the same compound?
**A.** The inhibition was 12.9%.

**Q.** And the activity at 10 µM [10]?
**A.** Its activity at 10 µM is 95% (not active).

**Q.** And the inhibition [11]?
**A.** Its inhibition is 3.4%.

**Q.** What about the residual activity [12] of the same compound?
**A.** The residual activity was 88%.

**Q.** And the residual activity [13]?
**A.** Its residual activity is 96%.

**Q.** What about the inhibition [14] of the same compound?
**A.** The inhibition was 12.9%.

**Q.** And the residual activity [15]?
**A.** Its residual activity is 100%.

**Q.** And the inhibition [16]?
**A.** The inhibition was 18.2%.

**Q.** And the residual activity [17]?
**A.** The residual activity was 82%.

**Q.** And the residual activity [18]?
**A.** The residual activity was 101%.

**Q.** And the residual activity [19]?
**A.** The residual activity was 99%.

**Q.** And the inhibition [20]?
**A.** Its inhibition is 20.7%.

**Q.** What about the residual activity [21] of the same compound?
**A.** Its residual activity is 123%.

**Q.** And the Kd [22]?
**A.** The Kd was “No binding”.

**Q.** What about the residual activity [23] of the same compound?
**A.** The residual activity was 82%.

**Q.** And the residual activity [24]?
**A.** The residual activity was 99%.

**Q.** And the residual activity [25]?
**A.** Its residual activity is 105%.

**Q.** And the inhibition [26]?
**A.** Its inhibition is 9.19%.

**Q.** And the residual activity [27]?
**A.** The residual activity was 86%.

**Q.** What about the IC50 [28] of the same compound?
**A.** Its IC50 is ≤ 3 nM (active).

**Q.** What about the inhibition [29] of the same compound?
**A.** The inhibition was 49.5%.

**Q.** What about the inhibition [30] of the same compound?
**A.** Its inhibition is 13.2%.

**Q.** And the residual activity [31]?
**A.** Its residual activity is 95%.

**Q.** What about the inhibition [32] of the same compound?
**A.** Its inhibition is 28.1%.

**Q.** And the residual activity [33]?
**A.** Its residual activity is 119%.

**Q.** What about the residual activity [34] of the same compound?
**A.** Its residual activity is 95%.

**Q.** And the residual activity [35]?
**A.** Its residual activity is 104%.

**Q.** And the residual activity [36]?
**A.** Its residual activity is 106%.

**Q.** And the inhibition [37]?
**A.** The inhibition was 65.8%.

**Q.** And the residual activity [38]?
**A.** The residual activity was 102%.

**Q.** What about the residual activity [39] of the same compound?
**A.** The residual activity was 97%.

**Q.** What about the inhibition [40] of the same compound?
**A.** Its inhibition is -2.05%.

**Q.** And the residual activity [41]?
**A.** The residual activity was 100%.

**Q.** What about the residual activity [42] of the same compound?
**A.** Its residual activity is 85%.

**Q.** What about the inhibition [43] of the same compound?
**A.** Its inhibition is 20.9%.
